According to article PMC3840147 (ACS chemical biology, 2013):

Assays:
[1] = test system: HeLa cells; assay: Cellular SENP inhibition: SUMOylated proteins in HeLa cells by Western blot; format: cell-based; conditions: increasing concentrations, 48 h
[2] = molecular target: T1, SENP7 (Homo sapiens, UniProt Q9BQF6); assay: DUB-Glo bioluminescent peptide substrate assay, SENP7; format: biochemical; conditions: read-out: SENP7 IC50
T1 sequence (Q9BQF6 760-1050 limits assumed): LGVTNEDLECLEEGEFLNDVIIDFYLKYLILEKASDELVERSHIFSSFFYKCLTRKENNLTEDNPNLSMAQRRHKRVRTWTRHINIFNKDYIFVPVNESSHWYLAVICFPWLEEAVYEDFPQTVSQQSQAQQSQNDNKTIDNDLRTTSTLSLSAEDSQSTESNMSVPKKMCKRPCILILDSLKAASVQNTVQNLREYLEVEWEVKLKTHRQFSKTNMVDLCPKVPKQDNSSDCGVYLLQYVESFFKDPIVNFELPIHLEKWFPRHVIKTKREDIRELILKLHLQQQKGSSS

[3] = molecular target: T2, SENP2 (Homo sapiens, UniProt Q9HC62); assay: DUB-Glo bioluminescent peptide substrate assay, SENP2; format: biochemical; conditions: read-out: SENP2 IC50
T2 sequence (Q9HC62 364-589): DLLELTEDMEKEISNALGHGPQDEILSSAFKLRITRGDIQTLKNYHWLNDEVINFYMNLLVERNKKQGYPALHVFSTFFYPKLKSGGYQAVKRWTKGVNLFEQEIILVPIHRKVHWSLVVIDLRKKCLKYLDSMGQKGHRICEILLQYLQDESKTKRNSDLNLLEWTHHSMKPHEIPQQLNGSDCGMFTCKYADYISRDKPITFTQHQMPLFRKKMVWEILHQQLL

SMILES | accumulation of SUMO-1 conjugates in cells [1] | accumulation of SUMO-2/3 conjugates in cells [1] | IC50 [2] | IC50 [3]
Nc1ccc2ccccc2c1N=Nc1ccc(/C=C/c2ccc(N=Nc3c(N)ccc4ccccc34)cc2S(=O)(=O)O)c(S(=O)(=O)O)c1 [SPI-01] | less significant effects | SUMO-2/3 conjugates accumulated in cells and this accumulation correlated with inhibitor concentration |  | 
Cc1cc(N)ccc1/N=N/c1cc(S(=O)(=O)O)c2cccc(S(=O)(=O)O)c2c1 [SPI-07] |  |  | 1.9 ± 2.2 µM | > 60 µM
Nc1c(N=Nc2ccccc2)cc(S(=O)(=O)O)c2ccccc12 [SPI-08] |  |  | 2.8 ± 1.6 µM | 
Nc1ccc2cc(S(=O)(=O)O)cc(S(=O)(=O)O)c2c1N=Nc1ccc(S(=O)(=O)O)cc1 [SPI-09] |  |  | 1.9 ± 2.1 µM | 
